In brackets after ≈: the same amount, converted by molar mass. Several values for one entry are separate records, joined by “and”; a condition that tells them apart may be missing. Equal values may be shown once.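 A five-concentration, 48-hour dose response in 96-well plates underlies each endpoint, interpolated linearly between surrounding concentrations. GI50 marks 50% less growth. At the TGI there is no net growth.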 Activity calls are given as the source filed them. Rule as the data show it: active = GI50 below about 0.43 µM; inactive = the rest.
Legend:
Experiment in all cases: growth of human tumour cells (NCI), 48 h
HOP-18 NSCLC = tested on: HOP-18 NSCLC
DU-145 prostate = tested on: DU-145 prostate
MOLT-4 leukemia = tested on: MOLT-4 leukemia
NCI-H23 lung = tested on: NCI-H23 lung
HT29 colon = tested on: HT29 colon
SF-539 CNS = tested on: SF-539 CNS
UACC-257 melanoma = tested on: UACC-257 melanoma
NCI-H226 lung = tested on: NCI-H226 lung
ACHN renal = tested on: ACHN renal

SMILES: O=C(Nc1ccc(Cl)cc1)NS(=O)(=O)c1ccc2c(c1)CCC2
- TGI (HOP-18 NSCLC): > 100 µM
- outcome (HOP-18 NSCLC): inactive
- TGI (DU-145 prostate): 92 µM
- GI50 (MOLT-4 leukemia): 19.7 µg/mL (≈ 56.2 µM)
- TGI (MOLT-4 leukemia): 98.2 µM and 74.6 µg/mL
- GI50 (NCI-H23 lung): 15.6 µg/mL (≈ 44.5 µM)
- TGI (NCI-H23 lung): > 56 µM and 36.3 µg/mL
- GI50 (HT29 colon): 19.7 µg/mL (≈ 56.2 µM)
- TGI (HT29 colon): > 100 µM and 43.4 µg/mL
- GI50 (SF-539 CNS): 17.6 µg/mL (≈ 50.3 µM)
- TGI (SF-539 CNS): > 69.2 µM and 37 µg/mL
- GI50 (UACC-257 melanoma): 27.8 µg/mL (≈ 79.2 µM)
- TGI (UACC-257 melanoma): > 100 µM and 80.6 µg/mL
- GI50 (NCI-H226 lung): 24.1 µg/mL (≈ 68.6 µM)
- TGI (NCI-H226 lung): > 77.8 µM and 52.5 µg/mL
- GI50 (ACHN renal): 16.1 µg/mL (≈ 45.8 µM)
- TGI (ACHN renal): > 100 µM and 49.6 µg/mL

SMILES: O=C(Nc1nc2ncn(CCOC(=O)c3ccccc3)c2c(=O)[nH]1)c1ccccc1
- TGI (HOP-18 NSCLC): > 100 µM
- TGI (DU-145 prostate): > 100 µM
- TGI (MOLT-4 leukemia): > 100 µM
- TGI (NCI-H23 lung): > 100 µM
- TGI (HT29 colon): > 37.9 µM
- TGI (SF-539 CNS): 65.2 µM
- TGI (UACC-257 melanoma): > 100 µM
- TGI (NCI-H226 lung): > 100 µM
- TGI (ACHN renal): > 100 µM

Source: PubChem BioAssay (NCI)
